Data on two compounds can be found in ChEMBL document CHEMBL1151656, “Cucurbitacin B and isocucurbitacin B: cytotoxic components of Helicteres isora” (1985).

This test is described as follows: Cytotoxicity against human 9KB cells. In kind it is functional.

Compound `CC(=O)OC(C)(C)/C=C/C(=O)[C@@](C)(O)[C@H]1[C@H](O)C[C@@]2(C)[C@@H]3CC=C4[C@@H](CC(=O)[C@@H](O)C4(C)C)[C@]3(C)C(=O)C[C@]12C` [ISOCUCURBITACIN B] had an ED50 of 7.6 ×10⁻⁵ ug/ml.

For the compound `CC(=O)OC(C)(C)/C=C/C(=O)[C@](C)(O)[C@H]1[C@H](O)C[C@@]2(C)[C@@H]3CC=C4[C@H](C[C@H](O)C(=O)C4(C)C)[C@]3(C)C(=O)C[C@]12C` [CUCURBITACIN B], the ED50 was <1 ×10⁻⁵ ug/ml.
